Results published in patent US5412117A, “Benzopyran derivatives” (Chugai Seiyaku Kabushiki Kaisha, priority 1990, dated 1995).
pIC50: −log10 of the molar value.

Tests used:
[1] = tested on: histamine-induced increase in respiratory tract inner pressure; experiment: Study on Antiasthmatic Activity: inhibition of histamine-induced increase in respiratory tract inner pressure; format: in vivo, male Hartley guinea pig; settings: Cavia porcellus; dose for 50% inhibition of histamine-induced increase in respiratory tract inner pressure; intraduodenal, anesthetized guinea pig
Procedure: Study on Antiasthmatic Activity
A mid-line incision was made in the neck of a male Hartley guinea pig (600 to 800 g, CRJ) under anesthesia with pentobarbitar (40 mg/kg, i.p.). The trachea, the left […], and the left carotid artery were exposed, and a cannula was inserted into each of them. The inner pressure of the respiratory tract was measured while applying artificial respiration through the tracheal cannula. The blood pressure was measured through the arterial cannula, and the heart rate was determined from the pulse. Pentobarbital for anesthesia maintenance was continuously administered through the venous cannula. A mid-line incision was made on the abdomen to expose the duodenum, and a cannula for intraduodenal administration was inserted thereinto. After the postoperative convalescence of 30 to 60 minutes, histamine (5 to 10 μg/kg) was intravenously administered every 10 minutes. After it was confirmed that a respiratory tract inner pressure rise reaction was stably obtained, a test compound in the form of a 0.3% CMC suspension was intraduodenally administered. The histamine dose was so selected that the respiratory tract inner pressure might rise to 20 to 40 cmH2 O after every lntravenous administration. After administration of the test compound, intravenous administration of histamine at 10 minutes intervals was continued. The histamine-induced increase in respiratory tract inner pressure after the administration of the test compound was compared with that before the administration.

[2] = tested on: Excised Aorta of Rat; experiment: Test with Excised Aorta of Rat: relaxation of lasting contraction following KCl (30 mM) addition; format: cell-based, male Sprague Dawley rat; settings: rat thoracic aorta rings, 30 mM KCl contraction, 37° C.
Procedure: Test with Excised Aorta of Rat
The thoracic aorta was excised from a male Sprague Dawley rat (450 to 600 g) and cut into 2 mm wide ring preparations. Each preparation was suspended in 10 ml of an organ bath containing a Krebs-Henseleit solution (NaCl:119; KCl:4.8; CaCl2 ·2H2 O: 2.53; KH2 PO4 :1.2; MgSO4 ·7H2 O: 1.2; NaHCO3 : 24.8; glucose: 10 (mM); 37° C.) under a tension of 2 g, and a mixed gas of 95% O2 and 5% CO2 was bubbled therethrough. Isometric contractions of the preparation were recorded by means of an FD pick-up. […] The activity of a test compound to relax a lasting contraction following the KCl addition was evaluated by obtaining a 50% inhibitory concentration (IC50).
The compounds of the present invention obtained in the foregoing Examples and, for comparison, Cromakalim were used as test compounds.

[3] = tested on: Guinea Pig Tracheal Muscle; experiment: Test with Guinea Pig Tracheal Muscle: relaxation of spontaneous tension; format: cell-based, male Hartley guinea pig; settings: Cavia porcellus; concentration exhibiting 50% relaxing activity, relaxing activity of 1 mM aminophylline taken as 100%, 37° C.
Procedure: Test with Guinea Pig Tracheal Muscle
The trachea was excised from a male Hartley guinea pig (450 to 550 g) to make chain preparations. The preparation was suspended in a bath containing the same Krebs-Henseleit solution as used in Test Example 1 (37° C.) through which a mixed gas of 95% O2 and 5% CO2 was bubbled. Isometric contractions of the preparation were recorded under a tension of 1 g.
The same test compounds as used in Test Example 1 were used.

SMILES | pIC50 [2] | pIC50 [3] | ED50 [1] [mg/kg]
CC1(C)Oc2ccc(C#N)cc2[C@@H](N2CCCC2=O)[C@@H]1O (relative stereo) [Cromakalim, reference compound] | 6.74 | 6.10 | 1 to 3
CNC(=S)C1=CC(C)(C)Oc2ccc(C#N)cc21 [Compound 3, N-Methyl-6-cyano-2,2-dimethyl-2H-1-benzopyran-4-carbothioamide] | 7.48 | 6.70 | 
CNC(=O)C1=CC(C)(C)Oc2ccc([N+](=O)[O-])cc21 [Compound 10, N-Methyl-6-nitro-2,2-dimethyl-2H-1-benzopyran-4-carboxamide] | 7.96 | 7.48 | < 0.1
CN(C)C(=NC#N)C1=CC(C)(C)Oc2ccc([N+](=O)[O-])cc21 [Compound 11, N^2 -Cyano-N^1,N^1-dimethyl-6-nitro-2,2-dimethyl-2H-1-benzopyran-4-carboxamidine] | < 4.52 | 7.27 | 0.1
CN=C(NC#N)C1=CC(C)(C)Oc2ccc([N+](=O)[O-])cc21 [Compound 12, N-Cyano-N'-methyl-6-nitro-2,2-dimethyl-2H-1-benzopyran-4-carboxamidine] | 7.96 | 7.64 | 0.1 to 0.3
CNC(=O)C1CC(C)(C)Oc2ccc([N+](=O)[O-])cc21 (stereo not shown) [Compound 22, N-Methyl-3,4-dihydro-6-nitro-2,2-dimethyl-2H-1-benzopyran-4-carboxamide] | 7.85 | 7.44 | < 0.3
CNC(=S)C1=CC(C)(C)Oc2ccc(Br)cc21 [Compound 134] | 8.03 | 7.12 | 
CCN(CC)C(=O)C1=CC(C)(C)Oc2ccc([N+](=O)[O-])cc21 [Compound 193] | 5.22 | 7.24 | < 0.3

These reach a higher pIC50 [2]. Values come first.

pIC50 [2] | pIC50 [3] | SMILES | ED50 [1] [mg/kg]
8.24 | 7.25 | CCCNC(=O)C1=CC(C)(C)Oc2ccc([N+](=O)[O-])cc21 [Compound 146] | 
8.43 | 7.96 | CCNC(=S)C1=CC(C)(C)Oc2ccc([N+](=O)[O-])cc21 [Compound 113] | 
8.43 | 7.66 | CC1(C)C=C(C(=S)NC2CC2)c2cc([N+](=O)[O-])ccc2O1 [Compound 137] | 
8.52 | 7.39 | CCCNC(=S)C1=CC(C)(C)Oc2ccc([N+](=O)[O-])cc21 [Compound 115] | 
8.59 | 7.43 | CNC(=S)C1=CC(C)(C)Oc2ccc(C(F)(F)F)cc21 [Compound 104] | 
8.68 | 7.80 | CCC1(C)C=C(C(=O)NC)c2cc([N+](=O)[O-])ccc2O1 (stereo not shown) [Compound 181] | 0.1 to 0.3
8.85 | 8.20 | CNC(=S)C1=CC(C)(C)Oc2ccc([N+](=O)[O-])cc21 [Compound 8, N,2,2-Trimethyl-6-nitro-2H-1-benzopyran-4-carbothioamide] | 0.1 to 0.3
9.74 | 8.54 | CCC1(C)C=C(C(=S)NC)c2cc([N+](=O)[O-])ccc2O1 (stereo not shown) [Compound 90] | 
9.85 | 7.42 | CNC(=S)C1=CC2(CCCCC2)Oc2ccc([N+](=O)[O-])cc21 [Compound 91] | 
10.38 | 7.96 | CNC(=O)C1=CC2(CCCCC2)Oc2ccc([N+](=O)[O-])cc21 [Compound 186] | 
10.43 | 7.30 | CNC(=S)C1=CC2(CCCC2)Oc2ccc([N+](=O)[O-])cc21 [Compound 128] | 
